Measurements taken from US20260130951A1, “GLYCYRRHIZIN-GLYCOL CHITOSAN CONJUGATE-COATED IRON OXIDE NANOPARTICLES AND USE THEREOF” (Industry-University Cooperation Foundation Hanyang …, priority 2018, published 2026).

Assays:
[1] = about 5 mg/kg intravenously injected; cited from earlier work
[2] = Liver lobe distribution after hepatic portal vein injection of methylene blue solution; format: in vivo, balb/c mice; settings: about 24 hours
Description: After zoletil and rumpun were injected into the abdominal cavity of balb/c mice at a ratio of 9:1 to anesthetize them, a methylene blue solution was injected by hepatic portal vein […]. After waiting for about 24 hours for tissue fixation of the methylene blue solution, all liver lobes were isolated by sacrificing the mice. The isolated liver lobes were fixed with a 10% formalin solution, made into a paraffin block, and cut into a thickness of 5 μm to prepare a tissue section slide. Thereafter, paraffin was removed from the tissue section slide, the slide was rehydrated, and then the tissue section was stained with a Harris hematoxylin solution and an eosin solution, and observed under an optical microscope.

| Structure (SMILES) | time glycyrrhizin remains in the body [1] | distribution of methylene blue solution among liver lobes (image J) [2] |
| --- | --- | --- |
| CC1(C)[C@@H](O[C@H]2O[C@H](C(=O)O)[C@@H](O)[C@H](O)[C@H]2O[C@@H]2O[C@H](C(=O)O)[C@@H](O)[C@H](O)[C@H]2O)CC[C@]2(C)[C@H]3C(=O)C=C4[C@@H]5C[C@@](C)(C(=O)O)CC[C@]5(C)CC[C@@]4(C)[C@]3(C)CC[C@@H]12 [glycyrrhizin] | ≤ 15 min | – |
| CN(C)c1ccc2nc3ccc(=[N+](C)C)cc-3sc2c1 [methylene blue solution, methylene blue] | – | present in the largest amount in Mediate 1 |
